Common to all, as to format: cell-based, human
Experiment [1] relates to MDA-MB-231 cell-derived organoids. The experiment is described as follows: Three-dimensional Matrigel culture, proportion of spherical vs invasive organoids. How it is done:
For three-dimensional culture assays, 50 μl of ice-cooled 33% growth factor-reduced Matrigel (Corning Incorporated, USA) in complete growth medium, consisting of DMEM containing 10% FBS, penicillin, streptomycin and amphotericin B (Invitrogen, Canada), was added per well of a 96-well flat bottom, ultra-low attachment plate (BD Biosciences, Canada) followed by storing the plate for 1 hour in a 5% CO2 humidified incubator at 37° C. to allow formation of a 1 mm-thick Matrigel bed in the well. Next, approximately 400 isolated MDA-MB-231 cells, suspended in 50 μl ice-cooled 50% Matrigel in complete growth medium, were layered on top of the Matrigel bed per well of the 96-well plate and incubated inside 5% CO2 humidified incubator at 37° C. One hour post addition and 37° C. incubation of Matrigel-cells suspension, 50 μl of complete growth medium was added to cover the solidified Matrigel-cells mixture. The following day and, every third day, the three-dimensional cultures received 50 μl of fresh complete growth medium without or with specified reagents as listed in the figure descriptions. On Day 8 of culture, differential interference contrast (DIC) images were captured of 8 representative organoids from each well, using light microscopy at 30× objective (Olympus IX70, Canada). […] Number of smooth surfaced organoids without any protrusions, designated as “spherical” were counted out of eight representative images in each well and then percentage of spherical organoids in each condition were plotted in bar graphs. Each experiment was performed at least three independent times for statistical analyses.

Experiment [2] shares this test system. The experiment is described as follows: Laminin/actin fluorescence staining of 3D organoids. To be noted: 8 day old organoids; absence or presence of TGFβ. How it is done:
For immunofluorescence analysis of 3D-organoids, 600 MDA-MB-231 cells were grown within 80 μL of 50% Matrigel on top of 80 μL of 33% Matrigel coat in each well of ultra-low attachment 8-well chamber slides (Millipore-Sigma, USA). After DIC imaging on Day 8, the live multicellular structures were fixed with 4% formaldehyde, followed by permeabilization using 0.5% ice-cold Triton X-100 solution and blocking using 10% bovine serum albumin (BSA) in phosphate-buffered saline (PBS). For immunofluorescence analysis of monolayer cell culture, cells were seeded onto wells of a Falcon 8-well chamber culture slides (Corning Incorporated, USA), followed by fixing and permeabilization as described for the 3D cultures, and blocking with 5% BSA and 5% calf serum in PBS. Laminin and CD44 in cells were visualized by subjecting the three-dimensional or monolayer cultures to indirect immunofluorescence using a rat anti-laminin antibody (Abcam, Canada) and rat anti-CD44 antibody (Thermo Fisher, Canada) as the primary antibody, respectively, and Alexa 647-conjugated anti-rat IgG (ThermoFisher, Canada) as the secondary antibody. Actin in cells was visualized by incubating the fixed cultures with tetramethylrhodamine isothiocyanate (TRITC)-conjugated phalloidin (Millipore-Sigma, Canada). The DNA binding dye bisbenzimide (Hoechst 33342; Invitrogen, Canada) was used to detect nuclei. […]

The next experiment concerns CD44. The experiment is described as follows: CD44 protein abundance in MDA-MB-231 cells (immunoblot, immunofluorescence). To be noted: for protein abundance of CD44, immunoblotting: 100 pM TGFβ, 100 μg/mL rhPRG4 in the absence or presence of TGFβ; for CD44 immunostaining signal in organoids: 8 day-old organoids, absence or presence of TGFβ. How it is done:
For immunofluorescence analysis of 3D-organoids, 600 MDA-MB-231 cells were grown within 80 μL of 50% Matrigel on top of 80 μL of 33% Matrigel coat in each well of ultra-low attachment 8-well chamber slides (Millipore-Sigma, USA). After DIC imaging on Day 8, the live multicellular structures were fixed with 4% formaldehyde, followed by permeabilization using 0.5% ice-cold Triton X-100 solution and blocking using 10% bovine serum albumin (BSA) in phosphate-buffered saline (PBS). For immunofluorescence analysis of monolayer cell culture, cells were seeded onto wells of a Falcon 8-well chamber culture slides (Corning Incorporated, USA), followed by fixing and permeabilization as described for the 3D cultures, and blocking with 5% BSA and 5% calf serum in PBS. Laminin and CD44 in cells were visualized by subjecting the three-dimensional or monolayer cultures to indirect immunofluorescence using a rat anti-laminin antibody (Abcam, Canada) and rat anti-CD44 antibody (Thermo Fisher, Canada) as the primary antibody, respectively, and Alexa 647-conjugated anti-rat IgG (ThermoFisher, Canada) as the secondary antibody. Actin in cells was visualized by incubating the fixed cultures with tetramethylrhodamine isothiocyanate (TRITC)-conjugated phalloidin (Millipore-Sigma, Canada). The DNA binding dye bisbenzimide (Hoechst 33342; Invitrogen, Canada) was used to detect nuclei. For CD44 knockdown analysis, the vector or CD44 shRNA transfected cells were identified by GFP signal. Immunofluorescence images were captured using an epifluorescence microscope with a 40× objective lens (Olympus Bx WI Confocal Microscope, Canada). Exposure times for laminin, actin, nuclei and GFP-specific signals were kept constant in each experiment. For each condition, 3 colonies/fields per experiment were captured, which were chosen as representative of the stained cells within each slide per experiments. Each experiment was repeated two independent times.
(§1) Cells were washed with PBS to remove all growth media. Appropriate volume of TNTE lysis buffer (50 mM Tris, 150 mM NaCl, 1 mM EDTA, 0.5% [v/v] Triton-X-100) containing protease and phosphatase inhibitors, was added to the cell monolayer and incubated at 4° C. under vigorous shaking for 20 minutes. Lysates were then collected in microcentrifuge tubes and centrifuged at 13,000 g for 10 minutes at 4° C. 5 μL of the lysate were subjected to protein concentration determination using Bradford-based protein assays (Bio-Rad Laboratories, Canada). Lysates were boiled for 3 minutes at 95° C. in dithiothreitol (DTT)-containing Laemmli sample buffer. […] Densitometric analyses were performed using Quantity One software (Bio-Rad Laboratories, Canada).
A general note: In western blotting, separated proteins are transferred to a membrane and probed.

A further experiment concerns HAS2. The experiment is described as follows: HAS2 protein abundance in MDA-MB-231 cells (immunoblot). Particulars: 100 pM TGFβ; 100 μg/mL rhPRG4 in the absence or presence of TGFβ. How it is done: as §1, with “buffer. For immunoprecipitation analyses, lysates were incubated with appropriate antibodies at 4° C. with gentle rocking for 3 h after which immunocomplexes were incubated with Protein G-conjugated agarose beads (UBPBio, USA) at 4° C. with gentle rocking for 3 h. Finally, the beads were washed with TNTE wash buffer (0.1% [v/v] Triton-X-100) and boiled for 5 minutes at 95° C. in dithiothreitol (DTT) containing Laemmli sample buffer. Immunoprecipitates and input lysates were then resolved by sodium dodecyl sulfate-polyacrylamide electrophoresis (SDS-PAGE) and transferred onto a nitrocellulose membrane (Bio-Rad Laboratories, Canada).” for “buffer.”

With “TGFβ: recombinant human mature transforming growth factor beta (R&D systems) [reference compound]”, the “effect of TGFβ on LMWHA-induced invasive growth” value in experiment [1] (100 pM TGFβ with LMWHA) is “further enhanced the ability of LMWHA to induce invasive growth”. In addition, the “invasive growth of organoids, stimulus alone” value in experiment [1] (100 pM TGFβ, LMWHA 10, 100 or 400 μg/mL, 8-day) is “promoted an invasive growth”. Also, the “basal lamina (laminin) status and actin organization” value in experiment [2] was “disrupted basement membrane organization”. Also, in the experiment with CD44, the “protein abundance of CD44, immunoblotting” value is on record as “promoted the protein abundance of CD44” and the “CD44 immunostaining signal in organoids” value was “enhanced the CD44-immnostaining signal”. Moreover, in the experiment with HAS2, the “protein abundance of HAS2, immunoblotting” value is “increased the protein abundance of HAS2”.

In the case of “rhPRG4: full-length recombinant human PRG4 (lubricin) glycoprotein produced by CHO-M cells; residues 25-1404 of SEQ ID NO:1”, the “TGFβ or LMWHA-induced invasive growth, vector control transfected cells” value in experiment [1] (100 pM TGFβ or 400 μg/mL LMWHA, 100 μg/mL rhPRG4) is “significantly reversed”. Further, in experiment [1] (100 pM TGFβ, 8-day, rhPRG4 0.1, 10, 100 μg/mL, KI 10 μM, 4-MU 0.5 mM), the “TGFβ-induced invasive growth of organoids” value was “drastically repress TGFβ-induced invasiveness”. Moreover, the “LMWHA-induced invasive growth of 4-MU-treated organoids” value in experiment [1] (0.5 mM 4-MU, 400 μg/mL LMWHA, 100 μg/mL rhPRG4) was “suppressed LMWHA-induced invasive growth”. Besides, in experiment [1] (LMWHA 10-400 μg/mL, 100 μg/mL rhPRG4, KI 10 μM), the “LMWHA-induced invasive growth of organoids” value is “suppressed the ability of LMWHA to promote the invasive growth”. Also, in experiment [1] (LMWHA 100 or 400 μg/mL, 100 pM TGFβ, CD44 antibody 2.5 μg/mL, rhPRG4 100 μg/mL), the “TGFβ and LMWHA-induced invasive growth of organoids” value was “suppressed TGFβ and LMWHA-induced invasive growth”. The “TGFβ-induced invasive growth, rhPRG4 applied to the Matrigel prior to culture” value in experiment [1] (Matrigel mixed with 100 μg/mL rhPRG4, 100 pM TGFβ) was “sufficient to suppress TGFβ-induced invasive growth”. Moreover, the “invasive growth promoted by overexpressed CD44/FLAG” value in experiment [1] (absence or presence of TGFβ or LMWHA, 100 μg/mL rhPRG4) is on record as “suppressed the ability of overexpressed CD44 to promote invasive growth”. Moreover, the “basal lamina (laminin) status and actin organization” value in experiment [2] was “promoted cortical actin organization and solid laminin ring formation”. In addition, in the experiment with CD44, the “protein abundance of CD44, immunoblotting” value is listed as “reduced the protein abundance of CD44” and the “CD44 immunostaining signal in organoids” value was “reduced this signal”. In the experiment with HAS2, the “protein abundance of HAS2, immunoblotting” value was “suppressed the protein abundance of HAS2”.

For the origin of these results see patent US20220332839A1, “USE OF PRG4 TO TREAT CANCER” (Lubris LLC, priority 2019, published 2022).
